The subject of one series is MDAMB231 lung metastasis. Briefly: in vivo lung metastasis of luciferase-tagged MDAMB231, IVIS imaging. More on the design: species or system SCID-beige mice. The following applies: siRNA in cationic liposomes twice weekly; for lung metastasis (animals with metastasis / animals), IVIS imaging: week six; for luminescence (luciferase analysis): p<0.05. On the procedure: 3 million cells MDAMB231 cancer cells, stably transfected with luciferase, were injected in the mammary fat pad of SCID-beige mice and were randomized into 3 groups: (1) vehicle+scrambled siRNA, (2) vehicle+MLF2 siRNA, and (3) vehicle+RPL39 siRNA, and treated with siRNA packaged liposomes twice weekly for 6 weeks. The mice were injected with D-luciferin every week for 6 weeks to determine lung metastases using IVIS imaging (Perkin Elmer). The primary tumors were removed by week 5 to continue this study without increasing the primary tumor burden to 10% of body weight.
To assess the effects of RPL39 and MLF2 siRNA on lung metastasis, SCID-Beige mice were injected with luciferase-tagged MDAMB231 cells and treated with siRNA against RPL39 or MLF2 packaged in cationic liposomes, twice weekly simultaneously, and then sacrificed at week six.

In the next series the test system is BCM2665 xenografts. Briefly: short-term in vivo siRNA (multistage particle) treatment, BCM2665 patient-derived xenograft. More on the design: species or system SCID-Beige mice. The following applies: for tumor volume: BCM2665; for secondary MSFE: BCM2665 xenograft cells, tumors collected after two weeks; for Aldefluor levels: BCM2665 xenografts, reduction not statistically significant. On the procedure: FIG. 10A, FIG. 10B, FIG. 10C, and FIG. 10D illustrate the short-term, in vivo treatment of siRNA in triple-negative, patient-derived human cancer in a murine model xenograft, BCM2665. BCM2665 cells were transplanted into cleared mammary fat pad of SCID beige mice (n=9). These tumors were randomized into the same six groups as stated in the preceding figure, and treated in a manner identical to the SUM159 xenografts. […] RPL39 and MLF2 siRNA respectively. […] Data were analyzed by one-way ANOVA, and are plotted as mean±SEM for n=9 replicates; *p<0.05;
(§1) The effect of MLF2 and RPL39 using siRNA packaged in multistage nanoparticles in two different triple negative models were studied. SUM159 and a patient-derived human cancer xenograft (BCM2665) from a primary human breast cancer transplanted in SCID-Beige mice, the test group had 54 mice per xenograft line, and 9 mice per treatment arm. When tumor sizes reached 150 to 300 mm^3, mice were divided into six groups: (1) vehicle-treated, (2) chemotherapy on day 0 with one dose of docetaxel 20 mg/kg by intraperitoneal (i.p.) injection. (3) siRNA against MLF2 packaged in nanoparticles (single injection intravenous (i.v.) on Day 1), (4) combination treatment with docetaxel (20 mg/kg i.p. on Day 1) and siRNA against MLF2 (single injection i.v. on Day 1), (5) siRNA against RPL39 packaged in nanoparticles (single injection i.v. on Day 1), and (6) combination treatment with docetaxel (20 mg/kg i.p. on Day 1) and siRNA against inhibitor […] (single injection iv. on Day 1). The same dose (15 μg siRNA) was used in all experiments. Animals were sacrificed on Day 14. The tumors were harvested and analyzed for downstream effects on BCSC self-renewal using FACS analysis, and MSFE.
(§2) The fraction of BCSCs in the xenograft tumors from the six treatment groups were processed by mincing and digesting the tumors using collagenase type III, for 3 hrs at 37° C. in order to dissociate the tumors into single cells. Changes in CD44+/CD24/Lin− and Aldefluor® were analyzed as described previously (Li et al., 2008). Briefly, cells were stained with primary antibodies antiCD44 labeled APC (dilution 1:10. BD Biosciences), anti-CD24-labeled FITC (dilution 1:10, BD Biosciences), and additionally with H2KD-labeled PE to eliminate all mouse, lineage-positive cells. The cells were incubated in HBSS (Hanks Balanced Salt Solution, GIBCO) for 15 min on ice with 2% FBS for the antibodies and 45 min for Aldefluor® reagent. Following incubation, cells were washed once with HBSS and re-suspended in HBSS supplemented with 2% FBS. […] (PI) was added to the cells for live/dead gating prior to FACS analysis.
(§3) Mammosphere formation efficiency, the in vitro assay for stem cell self-renewal, was performed as described previously (Dontu et al., 2003; Dontu et al., 2005; Li et al., 2008). Single cells were plated in ultra-low attachment plates (Corning, Acton, Mass., USA) at the density 40,000 viable cells/mL for BCM2665 in primary culture, and at the density 10,000 viable cells/mL in secondary culture. For mammosphere culture, cells were grown in serum-free mammary epithelial basal medium (MEGM) (Lonza, Inc.) supplemented with B27 (Invitrogen), 20 ng/mL EGF (BD Biosciences), and 1% heparin (Sigma Chemical Co.) in a humidified incubator ([…]: 95% air, 37° C. for 14 days, as previously described (Li et al., 2008).
In general terms: In xenograft studies the graft and the host belong to different species.

Another series has as its system SUM159 xenografts. Briefly: short-term in vivo siRNA (multistage particle) treatment, SUM159 xenograft. The arrangement: species or system SCID-Beige mice. To be noted: for tumor volume: SUM159; for secondary MSFE: SUM159 xenograft cells, tumors collected after two weeks; for Aldefluor levels: SUM159 xenografts, reduction not statistically significant. On the procedure:
FIG. 9A, FIG. 9B, FIG. 9C, and FIG. 9D show short-term, in vivo treatment in siRNA SUM159 xenografts. Triple-negative breast cancer cell line SUM159 was injected into the mammary fat pad of SCID beige mice (n=9). These tumors were randomized into six groups: 1) vehicle+scrambled siRNA (15 μg, i.v.); 2) vehicle+RPL39 siRNA 15 μg (i.v.); 3) vehicle+MLF2 siRNA (15 μg (i.v.); 4) docetaxel (20 mg/kg, i.p.)+scrambled siRNA 15 μg (i.v.): 5) docetaxel (20 mg/kg, i.p.)+RPL39 siRNA 15 ltg (i.v.), and 6) docetaxel (20 mg/kg, i.p.)+MLF2 siRNA 15 μg (i.v.). […] Data were analyzed by one-way ANOVA, and plotted as mean±SEM for n=9 replicates; *p<0.05;
as §1, §2, §3

[1] abbreviates: siRNA alone (15 μg i.v., MSV) vs vehicle.
Where [2] appears, read: siRNA+chemotherapy vs standard-dose docetaxel (20 mg/kg).

As to “MLF2 siRNA: siRNA against myeloid leukemia factor 2; sense SEQ ID NO: 3 CCCTGATGGATCCCTTTGCTAT, antisense SEQ ID NO: 19 ATAGCAAAGGGATCCATCAGGA (packaged in nanoliposomes, chemistry not given here, further chemistry not given here)”, the “lung metastasis (animals with metastasis / animals), IVIS imaging” value with MDAMB231 lung metastasis was 8/12. Moreover, the “luminescence (luciferase analysis)” value in the series on MDAMB231 lung metastasis was “significant reduction”. The tumor volume result is listed as “Significant reduction” with BCM2665 xenografts (setting [1]); “Similarly, observations were obtained” in the series on BCM2665 xenografts (setting [2]); “Significant reduction” in the series with SUM159 xenografts (setting [1]); “Similarly, observations were obtained” with SUM159 xenografts (setting [2]). Moreover, the “secondary MSFE” value in the series on BCM2665 xenografts and in the series with SUM159 xenografts was “Significant decrease” throughout. The Aldefluor levels entry in the series on BCM2665 xenografts and with SUM159 xenografts was “reduction” throughout.

“RPL39 siRNA: siRNA against ribosomal protein L39-like; sense SEQ ID NO: 15 ACGATTCCTGGCCAAGAAACAA, antisense SEQ ID NO: 31 TTGTTTCTTGGCCAGGAATCGC (listed as DNA, chemistry not fully specified)”: the “lung metastasis (animals with metastasis / animals), IVIS imaging” value with MDAMB231 lung metastasis is recorded as 5/11. The “luminescence (luciferase analysis)” value in the series with MDAMB231 lung metastasis is given as “significant reduction”. Moreover, the tumor volume entry with BCM2665 xenografts (setting [1]) is “Significant reduction”; in the series on BCM2665 xenografts (setting [2]), “Similarly, observations were obtained”; with SUM159 xenografts (setting [1]), “Significant reduction”; in the series on SUM159 xenografts (setting [2]), “Similarly, observations were obtained”. The “secondary MSFE” value in the series with BCM2665 xenografts and in the series on SUM159 xenografts was “Significant decrease” throughout. Also, the Aldefluor levels entry in the series with BCM2665 xenografts and in the series on SUM159 xenografts was “reduction” in each case.

(Values after patent US9546367B2, “siRNA compositions and methods for inhibiting gene expression in tumor initiating cells of breast cancer” (priority 2011, dated 2017).)
